Laboratory results reported in patent US20230190769A1, “E PROTEIN CHANNEL BLOCKERS AND ORF3 INHIBITORS AS ANTI-COVID-19 AGENTS” (priority 2020, published 2023).
Where two headings read alike, the source gives them in different places.

Legend:
Assay type in all cases: cell-based
SARS-CoV-2 3a protein = SARS-CoV-2 3a protein (Severe acute respiratory syndrome coronavirus 2, UniProt P0DTC3)
SARS-CoV-2 = details: for protection, effect on cell survival (FIG. 24 legend): individual 3a protein inhibitor at a concentration of 3 μM; for cell survival (in words): sole compound at 3, FIG. 24; for effectiveness of compounds on their own: sole compounds, protection of cells against viral death
SARS-CoV-2 E protein [1] = target: T1, SARS-CoV-2 E protein (Severe acute respiratory syndrome coronavirus 2, UniProt P0DTC4)
SARS-CoV-2 E protein [2] = target: T1, SARS-CoV-2 E protein; remark: listed apart in the source
SARS-CoV-2 E protein [3] = target: T1, SARS-CoV-2 E protein; remark: listed apart in the source
[4] = 3,000 molecules screened against 3a protein
[5] = 3000 molecules screened against E protein

T1 sequence (P0DTC4 whole entry, looked up): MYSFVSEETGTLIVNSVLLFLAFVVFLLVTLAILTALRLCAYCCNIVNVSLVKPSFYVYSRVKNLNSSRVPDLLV
Sequence of SARS-CoV-2 3a protein (P0DTC3 whole entry, looked up): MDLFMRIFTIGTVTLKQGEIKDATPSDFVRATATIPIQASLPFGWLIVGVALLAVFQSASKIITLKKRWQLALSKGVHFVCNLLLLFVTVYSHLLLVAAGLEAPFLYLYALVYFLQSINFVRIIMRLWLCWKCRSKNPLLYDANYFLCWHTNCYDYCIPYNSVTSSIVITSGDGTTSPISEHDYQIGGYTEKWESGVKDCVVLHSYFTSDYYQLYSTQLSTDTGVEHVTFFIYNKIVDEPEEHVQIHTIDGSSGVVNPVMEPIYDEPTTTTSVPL

Compound | outcome of screen: SARS-CoV-2 3a protein inhibitor (SARS-CoV-2 3a protein; [4]) | outcome of screen: SARS-CoV-2 E protein channel blocker (SARS-CoV-2 E protein [1]; [5]) | also measured
CCN(CC)CCN(Cc1ccc(-c2ccc(C(F)(F)F)cc2)cc1)C(=O)Cn1c(SCc2ccc(F)cc2)nc(=O)c2c1CCC2 [Darapladib, N-(2-Diethylaminoethyl)-2-[2-[(4-fluorophenyl)methylsulfanyl]-4-oxo-6,7-dihydro-5H-cyclopenta[d]pyrimidin-1-yl]-N-[[4-[4-(trifluoromethyl)phenyl]phenyl]methyl]acetamide] | can be used as SARS-CoV-2 3a protein inhibitor |  | protection, effect on cell survival (FIG. 24 legend) (SARS-CoV-2): near full protection; cell survival (in words) (SARS-CoV-2): full survival; effectiveness of compounds on their own (SARS-CoV-2): most effective
CCO[C@@H](Cc1ccc(OCCn2c(C)ccc2-c2ccc(SC)cc2)cc1)C(=O)O [Saroglitazar Magnesium, (αS)-α-Ethoxy-4-[2-[2-methyl-5-[4-(methylthio)phenyl]-1H-pyrrol-1-yl]ethoxy]benzenepropanoic Acid] |  | can be used as SARS-CoV-2 E protein channel blocker | 
C1CNCCNCCNCCN1 [Cyclen, 1,4,7,10-Tetraazacyclododecane] |  | can be used as SARS-CoV-2 E protein channel blocker | 
O=c1[nH]c(=O)n(C2CC(O)C(CO)O2)cc1F (stereo not shown) [Floxuridine, 5-Fluoro-1-[4-hydroxy-5-(hydroxymethyl)tetrahydrofuran-2-yl]-1H-pyrimidine-2,4-dione] | can be used as SARS-CoV-2 3a protein inhibitor |  | 
Cc1ccc(S(=O)(=O)NC(=O)NN2CC3CCCC3C2)cc1 (stereo not shown) [Gliclazide, 1-(3-azabicyclo(3.3.0)oct-3-yl)-3-(p-tolylsulfonyl)urea] |  | can be used as SARS-CoV-2 E protein channel blocker | bacterial growth in negative assay (SARS-CoV-2 E protein [2]): enhance bacterial growth; bacterial growth in positive assay (SARS-CoV-2 E protein [3]): inhibited growth
CC12CC3CC(C)(C1)CC(N)(C3)C2 [Memantine, 1-amino-3,5-dimethyladamantane] |  | can be used as SARS-CoV-2 E protein channel blocker | bacterial growth in negative assay (SARS-CoV-2 E protein [2]): enhance bacterial growth; bacterial growth in positive assay (SARS-CoV-2 E protein [3]): inhibited growth
N=C(N)c1ccc(OCCCCCOc2ccc(C(=N)N)cc2)cc1 [Pentamidine, 4,4′-[pentane-1,5-diylbis(oxy)]dibenzenecarboximidamide] | can be used as SARS-CoV-2 3a protein inhibitor |  | 
Cc1cc(C)c(NC(=O)CN(CC(=O)O)CC(=O)O)c(C)c1Br [Mebrofenin, 2-[[2-(3-bromo-2,4,6-trimethylanilino)-2-oxoethyl]-(carboxymethyl)amino]acetic acid] |  | can be used as SARS-CoV-2 E protein channel blocker | 
CN[C@@H]1[C@H](O)[C@H](NC)[C@H]2O[C@@]3(O)C(=O)C[C@@H](C)O[C@H]3O[C@@H]2[C@H]1O [Spectinomycin] | can be used as SARS-CoV-2 3a protein inhibitor |  | 
Nc1ncn([C@@H]2O[C@H](CO)[C@@H](O)[C@H]2O)c(=O)n1 [Azacytidine, 4-Amino-1-β-D-ribofuranosyl-s-triazin-2(1H)-one] |  | can be used as SARS-CoV-2 E protein channel blocker | 
C[C@H]1O[C@H](OC2[C@@H](O)[C@@H](O)C(O)[C@H](O)[C@H]2O)[C@@H](N)C[C@@H]1N=C(N)C(=O)O (stereo partly drawn) [Kasugamycin, 2-amino-2-[(2R,3 S,5 S,6R)-5-amino-2-methyl-6-[(2R,3 S,5S,6S)-2,3,4,5,6-pentahydroxycyclohexyl]oxyoxan-3-yl]iminoacetic acid] | can be used as SARS-CoV-2 3a protein inhibitor | can be used as SARS-CoV-2 E protein channel blocker | 
c1cc(CN2CCCNCCNCCCNCC2)ccc1CN1CCCNCCNCCCNCC1 [Plerixafor, 1-[[4-(1,4,8,11-tetrazacyclotetradec-1-ylmethyl)phenyl]methyl]-1,4,8,11-tetrazacyclotetradecane] |  |  | outcome of screen: SARS-CoV-2 E protein channel blocker (SARS-CoV-2 E protein [1]): can be used as SARS-CoV-2 E protein channel blocker; outcome of screen: SARS-CoV-2 3a protein inhibitor (SARS-CoV-2 3a protein): can be used as SARS-CoV-2 3a protein inhibitor
Capreomycin | can be used as SARS-CoV-2 3a protein inhibitor |  | 
Cc1ncc(NC(=O)c2ccc(CN3CCN(C)CC3)c(C(F)(F)F)c2)cc1Nc1nccc(-c2cccnc2)n1 [Flumatinib, 4-[(4-methylpiperazin-1-yl)methyl]-N-[6-methyl-5-[(4-pyridin-3-ylpyrimidin-2-yl)amino]pyridin-3-yl]-3-(trifluoromethyl)benzamide] | can be used as SARS-CoV-2 3a protein inhibitor |  | protection, effect on cell survival (FIG. 24 legend) (SARS-CoV-2): near full protection; cell survival (in words) (SARS-CoV-2): near full survival; effectiveness of compounds on their own (SARS-CoV-2): most effective
NCCCCN(Cc1nc2ccccc2[nH]1)[C@H]1CCCc2cccnc21 [Mavorixafor, N-(1H-benzimidazol-2-ylmethyl)-N-[(8S)-5,6,7,8-tetrahydroquinolin-8-yl]butane-1,4-diamine] |  | can be used as SARS-CoV-2 E protein channel blocker | 
CCNCCS(=O)(=O)NC[C@@]1(c2ccccc2)SC(NC(=O)C(C)(C)C)=NN1C(=O)C(C)(C)C [Litronesib, N-[(5R)-4-(2,2-dimethylpropanoyl)-5-[[2-(ethylamino)ethylsulfonylamino]methyl]-5-phenyl-1,3,4-thiadiazol-2-yl]-2,2-dimethylpropanamide] | can be used as SARS-CoV-2 3a protein inhibitor |  | 
